Reference: ChEMBL document CHEMBL4414667, “Uncarialins A-I, Monoterpenoid Indole Alkaloids from Uncaria rhynchophylla as Natural Agonists of the 5-HT1A Receptor” (J Nat Prod, 2019)
pEC50: −log10 of the molar value.

target: T1, 5-hydroxytryptamine receptor 1A (Homo sapiens, UniProt P08908); experiment: Agonist activity at human 5HT1A receptor expressed in CHOK1 cells incubated for 16 hrs followed by forskolin-stimulation and measured after 2 hrs by dual-glo luciferase reporter gene assay; format: cell-based
T1 sequence (P08908 whole entry): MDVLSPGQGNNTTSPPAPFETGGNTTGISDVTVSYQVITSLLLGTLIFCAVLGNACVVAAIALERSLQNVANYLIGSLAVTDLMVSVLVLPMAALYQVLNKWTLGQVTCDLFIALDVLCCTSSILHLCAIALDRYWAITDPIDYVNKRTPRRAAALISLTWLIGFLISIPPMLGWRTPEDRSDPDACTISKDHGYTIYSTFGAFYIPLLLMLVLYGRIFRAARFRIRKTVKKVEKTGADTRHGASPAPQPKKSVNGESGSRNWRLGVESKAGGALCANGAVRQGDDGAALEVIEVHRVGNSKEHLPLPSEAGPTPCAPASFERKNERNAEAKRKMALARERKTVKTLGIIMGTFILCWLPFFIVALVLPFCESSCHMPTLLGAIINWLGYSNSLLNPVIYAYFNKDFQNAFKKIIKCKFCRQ

SMILES | pEC50
COC(=O)C1=CO[C@@H](O[C@@H]2O[C@H](CO)[C@@H](O)[C@H](O)[C@H]2O)[C@@H]2[C@@H]3CN4CCc5c([nH]c6ccccc56)[C@]4(C[C@H]12)O3 | 4.99
C=C[C@H]1CN2CC[C@@]3(C(=O)Nc4ccccc43)[C@@H]2C[C@@H]1/C(=C\OC)C(=O)OC [ISOCORYNOXEINE] | < 4.00
C=C[C@H]1CN2CCc3c([nH]c4ccccc34)[C@@H]2C[C@@H]1/C(=C\OC)C(=O)OC | < 4.00
C/C=C1\C[N@@+]2([O-])CCc3c([nH]c4ccccc34)[C@@H]2C[C@@H]1[C@H](CO)C(=O)OC | 4.94
C=C[C@H]1[C@H](O[C@@H]2O[C@H](CO)[C@@H](O)[C@H](O)[C@H]2O)OC=C2C(=O)N3CCc4c([nH]c5ccccc45)[C@H]3C[C@H]21 | < 4.00
C=C[C@H]1C[N@@+]2([O-])CCc3c([nH]c4ccccc34)[C@H]2C[C@@H]1/C(=C\OC)C(=O)OC | 4.07
COC(=O)C1=CO[C@@H](O[C@@H]2O[C@H](CO)[C@@H](O)[C@H](O)[C@H]2O)[C@H]2[C@@H]1C[C@H]1c3[nH]c4ccccc4c3CCN1C[C@@H]2O | 5.80
CC[C@H]1CN2CCc3c([nH]c4ccccc34)[C@H]2C[C@@H]1[C@H](CO)C(=O)OC | < 4.00
CC[C@H]1CN2CCc3c([nH]c4ccccc34)[C@H]2C[C@H]1/C(=C\OC)C(=O)OC | < 4.00
C=C[C@H]1[C@H](O[C@@H]2O[C@H](CO)[C@@H](O)[C@H](O)[C@H]2O)OC=C2C(=O)N3CCc4c([nH]c5ccccc45)[C@@H]3C[C@H]21 | < 4.00
CC[C@H]1CN2CC[C@@]3(C(=O)Nc4ccccc43)[C@@H]2C[C@@H]1/C(=C\OC)C(=O)OC [ISORHYNCHOPHYLLINE] | 5.70
CC[C@H]1C[N@+]2([O-])CCc3c([nH]c4ccccc34)[C@H]2C[C@H]1/C(=C\OC)C(=O)OC | < 4.00
CC[C@H]1CN2CCc3c([nH]c4ccccc34)[C@H]2C[C@@H]1[C@@H](CO)C(=O)OC | 5.66
CC[C@H]1CN2CC[C@]3(C(=O)Nc4ccccc43)[C@@H]2C[C@@H]1/C(=C\OC)C(=O)OC [RHYNCHOPHYLLINE] | 4.99
C/C=C1\CN2CCc3c([nH]c4ccccc34)[C@H]2C[C@@H]1/C(=C\OC)C(=O)OC | < 4.00
CC[C@H]1C[N+]2([O-])CCc3c([nH]c4ccccc34)[C@H]2C[C@@H]1/C(=C\OC)C(=O)OC (stereo partly drawn) | < 4.00
COC(=O)C1=CO[C@@H](C)[C@@H]2CN3CCc4c([nH]c5ccccc45)[C@@H]3C[C@H]12 [TETRAHYDROALSTONINE] | < 4.00
C=C[C@H]1CN2CC[C@]3(O)C(=Nc4ccccc43)[C@H]2C[C@@H]1/C(=C\OC)C(=O)OC | < 4.00
C=C[C@H]1CN2CC[C@]3(O[C@@H]2C[C@@H]1/C(=C\OC)C(=O)OC)C(=O)Nc1ccccc13 | 5.00
C=C[C@H]1CN2CCc3c([nH]c4ccccc34)[C@H]2C[C@@H]1[C@H](CO)C(=O)OC | 4.26
C/C=C1/C[N+]2([O-])CCc3c([nH]c4ccccc34)[C@@H]2C[C@@H]1/C(=C\OC)C(=O)OC (stereo partly drawn) | < 4.00
C=C[C@H]1C[N@@+]2([O-])CCc3c([nH]c4ccccc34)[C@H]2C[C@@H]1[C@@H](CO)C(=O)OC | < 3.30
C=C[C@H]1CN2CCc3c([nH]c4ccccc34)[C@H]2C[C@@H]1[C@@H](CO)C(=O)OC | 7.00
